Measurements published in patent US9849145B2, “Pharmaceutical composition containing honeysuckle extract and antibiotics, pharmaceutical kit, and use of honeysuckle extract for preparation of drug” (priority 2011, dated 2017).
Values joined by “and” are separate entries in the source; they are usually repeats but may differ in a detail not shown here. Identical values can stand only once.

Legend:
[1] = tested on: Pseudomona aeruginosa; design: key: Resistant; Sensitive; Intermediate degree (moderate resistance); settings: clinical isolate, specimen 12; cited from earlier work
[2] = tested on: Klebsiella pneumoniae; design: key: Resistant; Sensitive; Intermediate degree (moderate resistance); settings: clinical isolate, specimen 31853, urine; cited from earlier work
[3] = tested on: AMP-sensitive strain; assay: AMP-sensitive bacterium infection model in mice (quality control); assay type: in vivo, KM mice; settings: for protection / control of infection by AMP alone (in words): AMP-sensitive bacterium infection model-AMP intervention control group
From the text: The control strain is clinically isolated AMP-sensitive strain, which was isolated from the sputum specimen of the patient in the ward of the Fourth People's Hospital of Jinan in 2010, and preserved until today.
(§1) KM mice were purchased from the Experimental Animal Center of Shandong University, weighing 16-18 g, with half male and half female and animal license number of SCXK (Lu) 20090001.
(§2) There were 5 control groups with 10 mice in each group: normal control group, AMP-sensitive bacterium quality control model control group (AMPS) and the treatment group thereof, AMP-resistant bacterium model control group (AMPR) and the treatment group thereof;
(§3) After being grouped, the animals were injected intraperitoneally with 2.5×10^7 (Klebsiella pneumoniae)*100 μL^−1 per animal, then immediately treated by administration, and the route of administration alternated between tail intravenous injection and intraperitoneal injection (the sterile normal saline was used as the solvent for drugs except W, since continuous tail intravenous injection causes damage to tail veins, therefore the tail intravenous injection and intraperitoneal injection were performed alternatively), the animal was injected once a day for 5 days continuously. The efficacy of each group was evaluated according to the animal mortality and intraperitoneal bacterial count.
(§4) Intraperitoneal bacterium counting of dead animals: the animals were injected intraperitoneally with 1 ml sterile normal saline immediately after they died, and the abdomens of the animals were kneaded gently for 1 min, the ascites was drawn and coated on the plate after gradient dilution, and cultured at 37° C. overnight, then the colonies were counted;
(§5) Intraperitoneal bacterium counting of surviving animals: the mice were administrated continuously for 5 days and sacrificed through dislocation 2 h after the last administration, then the mice were injected intraperitoneally with 1 ml sterile normal saline, and the abdomens of the mice were kneaded gently for 1 min, the ascites was drawn and coated on the plate after gradient dilution, and cultured at 37° C. overnight, then the colonies were counted, colony count results of the control groups are shown in table 9 below, and colony count results of the experimental groups are shown in table 10 below.

[4] = tested on: Escherichia coli; design: key: Resistant; Sensitive; Intermediate degree (moderate resistance); settings: clinical isolate, specimen 32042, urine; cited from earlier work
[5] = tested on: AMP-resistant Klebsiella pneumoniae; assay: AMP-resistant bacterium infection model in mice (mortality, intraperitoneal colony count); assay type: in vivo, KM mice; settings: for protection / control of infection by AMP alone (in words): AMP-resistant bacterium infection model-AMP intervention control group
From the text: This example studies the antimicrobial effects in vivo of the honeysuckle extracts N1 to N4 which are respectively combined with antibiotics, and the antimicrobial effects were compared with that of the honeysuckle water decoction W combined with the antibiotic.
The experimental strain is Klebsiella pneumoniae which was isolated from the sputum specimen of the patient in the ward of the Fourth People's Hospital of Jinan in 2010, and detection of the drug resistant spectrum is shown in Table 6 below.
as §1, §2
There were 15 experimental groups with 10 mice in each group: N1 to N4 and W were respectively combined with AMP high-dose group, AMP medium-dose group and AMP low-dose group.
as §3, §4, §5

[6] = tested on: Klebsiella pneumoniae; assay: Bacterial inhibition test of antibiotics, Klebsiella pneumoniae; assay type: cell-based; settings: 2-fold dilutions from 1 mg/mL to 1:2048; 37° C. 20 h; 630 nm
Method: In this example, bacterial inhibition effects of antibiotics on the four multiple resistant bacteria in Tables 1-4 were measured.
The activated bacterium suspension was diluted to a concentration equivalent to 0.5 McFarland turbidity standard, and diluted with the culture medium of MH broth in a proportion of 1:1000, and then added into each well in amount of 100 μL per well.
The antibiotics resisted by the above four multiple resistant bacteria were diluted to 1:2048 (2^−11) from 1 mg/mL (initial concentration) by 2-fold dilution, and then the original solution and different concentrations of diluted antibiotics were added respectively into the well containing the bacterium suspension, with each well added with 100 μL, and the minimum inhibitory concentration (MIC) of each antibiotic was recorded finally.
Meanwhile, a bacterium solution control (that is, bacterium solution plus an equal volume of culture medium) and a blank culture medium control were set.
Cultivation was performed at 37° C. for 20 h, and detection was performed at 630 nm by the microplate reader, and the bacterial inhibition rate is calculated according to formula (2), and the data obtained is put into formula (1) to calculate specific distance, and the specific distance is added to the virus dilution index with pathologic rate less than 50% to obtain half inhibitory concentration (Reed-Muench method). […]

[7] = tested on: Klebsiella pneumoniae; design: key: Resistant; Sensitive; Intermediate degree (moderate resistance); settings: clinical isolate, specimen 31494, sputum; cited from earlier work
[8] = tested on: Staphylococcus aureus; design: key: Resistant; Sensitive; Intermediate degree (moderate resistance); settings: clinical isolate, specimen Y31692, secretion; cited from earlier work
[9] = AMP-sensitive bacterium model, AMP 16.80 mg per mouse alone, n = 10
[10] = AMP intervention control group: AMP 16.80 mg per mouse alone, n = 10

## CC1(C)S[C@@H]2[C@H](NC(=O)[C@H](N)c3ccccc3)C(=O)N2[C@H]1C(=O)O [AMP, ampicillin]
[1]
  resistance of Pseudomona aeruginosa to the antibiotic: R
[2]
  resistance of Klebsiella pneumoniae to the antibiotic: R
[3]
  protection / control of infection by AMP alone (in words): protected effectively
[3]; listed as ampicillin
  protection / control of infection by AMP alone (in words): sensitive to ampicillin
[3]; [9]
  Mortality (%): 0%
  Number of deaths 1st day: 0
  Number of deaths 2nd day: 0
  Number of deaths 3rd day: 0
  Number of deaths 4th day: 0
  Number of deaths 5th day: 0
  Number of deaths Total: 0
[3]; AMPS model, AMP 16.80 mg per mouse alone
  Bacterium isolation positive rate (%): 10%
[3]; AMPS model, AMP 16.80 mg per mouse alone, one value per mouse Nos. 1-10, unit not given in Table 9 (Table 10 note: CFU/mL)
  Intraperitoneal colony count of animals: 1.054 × 10^1 and 0 (9×)
[4]
  resistance of Escherichia coli to the antibiotic: R
[5]; [10]
  Mortality (%): 100%
  Number of deaths 1st day: 0
  Number of deaths 2nd day: 7
  Number of deaths 3rd day: 2
  Number of deaths 4th day: 1
  Number of deaths 5th day: 0
  Number of deaths Total: 10
[5]
  protection / control of infection by AMP alone (in words): cannot be protected (all of animals died)
[5]; listed as ampicillin
  protection / control of infection by AMP alone (in words): cannot be controlled by ampicillin
[5]; AMPR model, AMP 16.80 mg per mouse alone
  Bacterium isolation positive rate (%): 100%
[5]; AMPR model, AMP 16.80 mg per mouse alone, one value per mouse Nos. 1-10, unit not given in Table 9 (Table 10 note: CFU/mL)
  Intraperitoneal colony count of animals: 3.557 × 10^10 and 3.478 × 10^10 and 3.578 × 10^10 and 3.487 × 10^10 and 3.550 × 10^10 and 3.373 × 10^10 and 3.360 × 10^10 and 6.617 × 10^9 and 4.800 × 10^9 and 5.467 × 10^9
[6]
  bacterial inhibition effect of the antibiotic: inhibitory effect on Klebsiella pneumoniae in the first two dilutions (1 mg/mL, 0.5 mg/mL)
[7]
  drug resistant spectrum of the experimental strain of Klebsiella pneumoniae: R

## gentamicin
[1]
  resistance of Pseudomona aeruginosa to the antibiotic: S
[2]
  resistance of Klebsiella pneumoniae to the antibiotic: S
[4]
  resistance of Escherichia coli to the antibiotic: R
[8]
  resistance of Staphylococcus aureus to the antibiotic: S
[7]
  drug resistant spectrum of the experimental strain of Klebsiella pneumoniae: R
